Measured values as given in patent US5591735A, “Androstane derivatives substituted by a quaternary ammonium group in 16-position, pharmaceutical compositions containing them and process for preparing same” (Marvishi Pharmaceutical Co., Ltd., priority 1992, dated 1997).
Where a name gives a salt, the structure may show the parent alone.

Assays:
[1] = test system: anterior tibial muscle (musculus tibialis anterior); assay: In vivo effect on the anterior tibial muscle of the guinea-pig; conditions: for time for the 75% neuromuscular block to decrease to 25%: 2×ED90 doses; for ED50 / ED90: Cavia porcellus, iv; for Clinical duration / Onset time: 2 × ED90 dose; for Clinical duration / Recovery 25%-75% / Onset time: guinea-pig, mean ± SEM (n = 4); for Onset time: time required to 95% block
[2] = test system: phrenic nerve-hemidiaphragm preparation; assay: In vitro muscle relaxing effect on the isolated phrenic nerve-hemidiaphragm preparation of rats; design: species or system rat; conditions: for IC90: read-out: ED90 rat
[3] = test system: phrenic nerve-hemidiaphragm preparation; assay: In vitro muscle relaxing effect on the isolated phrenic nerve-hemidiaphragm preparation of guinea-pigs; design: species or system guinea-pig; conditions: for IC90: read-out: ED90 guinea-pig
vagus = conditions: 4×ED90 dose; cited from earlier work
[4] = test system: phrenic nerve-hemidiaphragm preparation; assay: Reversal of the in vitro neuromuscular block (wash-out, neostigmine, edrophonium); design: species or system rats and guinea-pigs
vagus nerve = assay: Antivagal effect on anesthetized cat
neuromuscular block = assay: Comparison of the effects of 2 × ED90 doses in beagle dog; assay type: in vivo; design: Tetanic fade: unit not given here; conditions: mean ± SEM; for Recovery 0-75% / Recovery index / Time to max. recovery: P <0.02; for T4/T1 at max. recovery: P <0.05; for Clinical duration / Onset time / Time to 80% block / ED90 / ED95: n = 8; for Clinical duration / Onset time: P <0.001; for Time to 80% block: P <0.01; for ED90 / ED95: Canis lupus familiaris, beagle dog
Description: Comparison of the effects of 2 × ED90 doses in beagle dog (no.
animals in parentheses). Mean ± SEM.

[5] = background; cited from earlier work
[6] = rat, 0.1 Hz, 0.2 ms, supramaximal stimulus, mean ± SEM (n = 4)

Row | Compound | time for the 75% neuromuscular block to decrease to 25% ([1]; guinea-pigs) | ED50 [1] | ED90 [1] | Clinical duration [1] | Recovery 25%-75% [1] | Onset time [1] | IC90 ([2]; Rattus norvegicus) | IC90 ([3]; Cavia porcellus) | Recovery 0-75% (neuromuscular block; 2 × ED90, beagle dog, n = 4) | Recovery index (neuromuscular block; 2 × ED90, beagle dog, n = 4) | Time to max. recovery (neuromuscular block; 2 × ED90, beagle dog, n = 4) | T4/T1 at max. recovery (neuromuscular block; 2 × ED90, beagle dog, n = 4) | Clinical duration (neuromuscular block; 2 × ED90, beagle dog) | Onset time (neuromuscular block; 2 × ED90, beagle dog) | Time to 80% block (neuromuscular block; 2 × ED90, beagle dog) | ED90 (neuromuscular block) | ED95 (neuromuscular block) | cardiovascular side effects / stability [5] | IC90 [2, 6] | further results
1 | CC(=O)O[C@H]1C[C@@H]2CC[C@@H]3[C@H](CC[C@@]4(C)[C@H]3C[C@H]([N+]3(C)CCCCC3)[C@@H]4OC(C)=O)[C@@]2(C)C[C@@H]1[N+]1(C)CCCCC1 [Pancuronium bromide, 1'-[3α,17β-bis(acetyloxy)-5α-androstane-2β,16β-diyl]bis[1-methylpiperidinium]dibromide] | 45.6 min | 10 ± 1.1 µg/kg | 0.015 ± 0.0019 mg/kg | 45.6 ± 5.68 min | 14.8 ± 2.45 min | 1.1 ± 0.31 min | 6.36 ± 0.03 µM | 290 ± 10 nM |  |  |  |  |  |  |  |  |  |  |  | inhibition of the decrease of blood pressure caused by vagal stimulation (vagus): 50%; inhibition of the decrease of heart rate caused by vagal stimulation (vagus): 50%
2 | C=CC[N+]1([C@H]2C[C@H]3[C@@H]4CC[C@H]5C[C@H](OC(C)=O)[C@@H](N6CCC7(CC6)OCCO7)C[C@]5(C)[C@H]4CC[C@]3(C)[C@H]2OC(C)=O)CCCC1.[Br-] [Example 8, 1-[3α,17β-bis(acetyloxy)-2β-(1,4-dioxa-8-azaspiro[4.5]dec-8-yl)-5α-androstan-16β-yl]-1-(2-propenyl)pyrrolidinium bromide] | 10.1 min | 34 ± 2 µg/kg | 0.048 ± 0.0027 mg/kg | 10.1 ± 1.32 min | 2.4 ± 0.3 min | 0.9 ± 0.18 min | 8.37 ± 0.26 µM | 900 ± 30 nM | 16.2 ± 0.9 min | 3.4 ± 0.4 min | 24.4 ± 2.0 min | 91.3 ± 4.8 | 12.6 ± 0.6 min | 75.3 ± 5.9 s | 48.4 ± 2.9 s | 0.0105 ± 0.0002 mg/kg | 0.0111 ± 0.0002 mg/kg |  |  | onset of action ([4]; in vitro): rapid; reversibility by wash-out ([4]; in vitro): easily reversible by wash-out; antagonism of the effect ([4]; with neostigmine methyl sulfate or edrophonium chloride): could also be antagonized with neostigmine methyl sulfate; duration of action compared with reference substances ([1]; guinea-pigs, in vivo): shorter than those of other reference substances with similar chemical structure; onset of action compared with reference substances ([1]; guinea-pigs, in vivo): more rapid; neuromuscular blocking (inhibitory) effect compared with known muscle relaxants ([2]; rat, in vitro): of the similar order of magnitude as that of other known, clinically employed muscle relaxants; block of the vagus (vagus nerve; 8×ED90 dose): did not block the vagus; inhibition of the effects of electrical stimulation of the vagus on heart rate or blood pressure (vagus nerve; 8×ED90 dose): did not inhibit the effects of electrical stimulation of this nerve on heart rate or blood pressure; change in heart rate or blood pressure on electrical stimulation of the vagus (vagus nerve; in vivo cat experiments): no significant change in heart rate or blood pressure; effect on the vagus (vagus nerve; in vivo cat experiments): no stimulating effect on the vagus; Decrease in heart rate (vagus nerve; vagal stimulation, anesthetized cat, mean ± SEM (n = 4), control 14 ± 1.8): 15 ± 2.9%; Decrease in blood pressure (vagus nerve; vagal stimulation, anesthetized cat, mean ± SEM (n = 4), control 40.0 ± 8.1): 32.0 ± 6.6 Hgmm; neuromuscular blocking (inhibitory) effect compared with known muscle relaxants ([3]; guinea-pig, in vitro): of the similar order of magnitude as that of other known, clinically employed muscle relaxants; Tetanic fade (neuromuscular block; 2 × ED90, beagle dog, n = 4, P n.s. (not significant)): 97.5 ± 1.9
3 | CC(=O)O[C@H]1C[C@@H]2CC[C@@H]3[C@H](CC[C@@]4(C)[C@H]3C[C@H]([N+]3(C)CCCCC3)[C@@H]4OC(C)=O)[C@@]2(C)C[C@@H]1N1CCCCC1 [Vecuronium bromide, 1-[3α,17β-bis(acetyloxy)-2β-(1-piperidinyl)androstan-16β-yl]1-methylpiperidinium bromide hydrochloride] |  | 7 ± 1.9 µg/kg | 0.011 ± 0.002 mg/kg | 26.6 ± 4.61 min | 9.0 ± 2.35 min | 1.3 ± 0.51 min | 8.72 ± 0.38 µM | 250 ± 10 nM | 24.9 ± 3.0 min | 6.6 ± 1.1 min | 31.4 ± 4.3 min | 71.0 ± 2.9 | 17.8 ± 1.1 min | 115.1 ± 8.6 s | 62.8 ± 4.5 s | 0.0358 ± 0.0009 mg/kg | 0.0379 ± 0.001 mg/kg | lack of cardiovascular side effects |  | 
4 | CC(=O)O[C@H]1C[C@@H]2CC[C@@H]3[C@H](CC[C@@]4(C)[C@H]3C[C@H](N3CC[N+](C)(C)CC3)[C@@H]4OC(C)=O)[C@@]2(C)C[C@@H]1N1CC[N+](C)(C)CC1.[Br-].[Br-] [Pipecuronium bromide, 4,4'-[3α,17β-bis(acetyloxy)-5α-androstane-2β,16β-diyl]bis[1,1-dimethylpiperazinium]dibromide] | 60.6 min | 4 ± 0.7 µg/kg | 0.006 ± 0.0007 mg/kg | 60.6 ± 9.28 min | 24.6 ± 3.71 min | 1.5 ± 0.08 min |  |  |  |  |  |  |  |  |  |  |  | exceed those of pancuronium bromide or vecuronium bromide | 1.5 ± 0.04 µM | IC90 ([3]; Cavia porcellus, guinea-pig, 0.1 Hz, 0.2 ms, supramaximal stimulus, mean ± SEM (n = 4)): 80 ± 3 nM
5 | 7',12dihydroxy-6,6dimethoxy-2,2',2trimethyltubocuraranium chloride hydrochloride [Tubocurarine chloride] |  |  |  |  |  |  |  |  |  |  |  |  |  |  |  |  |  |  | 1.02 ± 0.01 µM | IC90 ([3]; guinea-pig, 0.1 Hz, 0.2 ms, supramaximal stimulus, mean ± SEM (n = 4)): 1330 ± 90 nM
